The text below walks through data of PMC3690538, “Structure of Rhomboid Protease in Complex with β-Lactam Inhibitors Defines the S2′ Cavity” (Structure(London, England:1993), 2013).

For this test, the target named is T1, GlpG (Escherichia coli, UniProt P09391).
T1 construct: purified intramembrane serine protease in detergent
T1 sequence (P09391 1-276): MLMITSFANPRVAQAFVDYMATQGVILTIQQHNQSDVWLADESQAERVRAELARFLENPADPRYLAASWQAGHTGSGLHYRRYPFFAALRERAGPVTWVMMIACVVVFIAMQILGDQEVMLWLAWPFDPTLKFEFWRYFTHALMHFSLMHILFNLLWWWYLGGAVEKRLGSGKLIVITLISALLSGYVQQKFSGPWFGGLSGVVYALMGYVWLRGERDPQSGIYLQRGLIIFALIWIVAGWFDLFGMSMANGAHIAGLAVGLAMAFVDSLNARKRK
As to the kind of experiment: gel-based substrate cleavage, SDS-PAGE densitometry, four-parameter fit. The format is biochemical.

As a reminder, the IC50 is the midpoint of a concentration-inhibition curve. The low end stands for greater potency, the high end for weaker potency. As for `O=C1CC(c2ccccc2)N1C(=O)Oc1ccc(Cl)cc1` (centres unmarked) [L60], half-maximal inhibition (IC50) required 1090 ± 30 nM.
`O=C1CC(c2ccccc2)N1C(=O)OCc1ccccc1` (centres unmarked) [L59] had an IC50 of 728 ± 60 nM. This IC50 and that of the compound before are within 1.5-fold of each other.
Compound `CC(C)COC(=O)N1C(=O)CC1c1ccccc1` (racemic) [L61] returned an IC50 of 11700 ± 750 nM. This IC50 is about 16-fold higher than that of the compound before.
Consider `O=C1CC(c2ccccc2)N1C(=O)OC1CCCC1` (racemic) [L62], for which the IC50 was found to be 5270 ± 80 nM. This IC50 lies about 2.2-fold lower than the previous one.
`O=C1CC(c2ccccc2)N1C(=O)Oc1ccccc1` (racemic) [L29] returned an IC50 of 1120 ± 50 nM.
